Each structure is given as a SMILES string.

Broadly, the melting point is the temperature of the solid-liquid transition. Turning to `O=C(CN1CCC(N2CCOCC2)CC1)Nc1nc(-c2ccco2)c(C(=O)C2CCOCC2)s1` [Compound 553, N-[4-(2-Furyl)-5-(tetrahydropyran-4-ylcarbonyl)thiazol-2-yl]-2-(4-morpholinopiperidino)acetamide], the melting point fell in the range of 193 to 195 °C.

Turning to `O=C(CN1CCC2(CC1)OCCO2)Nc1nc(-c2ccco2)c(C(=O)C2CCOCC2)s1` [Compound 554, 2-(1,4-Dioxa-8-azaspiro[4.5]decan-8-yl)-N-[4-(2-furyl)-5-(tetrahydropyran-4-ylcarbonyl)thiazol-2-yl]acetamide], the melting point lay within 186 to 187 °C.

`CN1CCN(CC(=O)Nc2nc(-c3ccco3)c(C(=O)C3CCOCC3)s2)CC1` [Compound 562, N-[4-(2-Furyl)-5-(tetrahydropyran-4-ylcarbonyl)thiazol-2-yl]-2-(4-methylpiperazin-1-yl)acetamide] registered a melting point of 106 to 112 °C.

In the case of `CC(C)(O)CN1CCN(CC(=O)Nc2nc(-c3ccco3)c(C(=O)C3CCOCC3)s2)CC1` [Compound 565, N-[4-(2-Furyl)-5-(tetrahydropyran-4-ylcarbonyl)thiazol-2-yl]-2-[4-(2-hydroxy-2-methylpropyl)piperazin-1-yl]acetamide], the melting point lay within 106 to 108 °C. `COC1(CN2CCN(CC(=O)Nc3nc(-c4ccco4)c(C(=O)C4CCOCC4)s3)CC2)CC1` [Compound 567, N-[4-(2-Furyl)-5-(tetrahydropyran-4-ylcarbonyl)thiazol-2-yl]-2-{4-[(1-methoxycyclopropyl)methyl]piperazin-1-yl}acetamide]: the melting point lay in the range of 155 to 157 °C. With `CN1CCCN(CC(=O)Nc2nc(-c3ccco3)c(C(=O)C3CCOCC3)s2)CC1` [Compound 576, N-[4-(2-Furyl)-5-(tetrahydropyran-4-ylcarbonyl)thiazol-2-yl]-2-(4-methyl-1,4-diazepan-1-yl)acetamide] the figure was 94 to 96 °C; with `O=C(CNC12CC3CC(CC(C3)C1)C2)Nc1nc(-c2ccco2)c(C(=O)C2CCOCC2)s1` [Compound 577, N-[4-(2-Furyl)-5-(tetrahydropyran-4-ylcarbonyl)thiazol-2-yl]-2-(adamantan-1-ylamino)acetamide], 168 to 170 °C.

`O=C(CNC12CC3CC(CC(O)(C3)C1)C2)Nc1nc(-c2ccco2)c(C(=O)C2CCOCC2)s1` [Compound 578, N-[4-(2-Furyl)-5-(tetrahydropyran-4-ylcarbonyl)thiazol-2-yl]-2-(3-hydroxyadamantan-1-ylamino)acetamide] registered a melting point of 176 to 178 °C. To `CCOC(=O)Nc1nc(-c2ccco2)c(C(=O)C2CCOCC2)s1` [Compound 581, Ethyl N-[4-(2-furyl)-5-(tetrahydropyran-4-ylcarbonyl)thiazol-2-yl]carbamate] belongs 152 to 153 °C.

On to `O=C(Nc1nc(-c2ccco2)c(C(=O)C2CCSCC2)s1)c1ccncc1` [Compound 589, N-[4-(2-Furyl)-5-(tetrahydrothiopyran-4-ylcarbonyl)thiazol-2-yl]pyridine-4-carboxamide], for which the melting point lay in the range of 203 to 210 °C.

Compound `Cc1ccc(-c2nc(NC(=O)c3ccncc3)sc2-c2ccncc2)o1` [Compound 601, N-[4-(5-Methylfuran-2-yl)-5-(4-pyridyl)thiazol-2-yl]pyridine-4-carboxamide] gave a melting point of 274 to 276 °C. In turn, `Cc1ccoc1-c1nc(NC(=O)c2ccncc2)sc1-c1ccncc1` [Compound 602, N-[4-(3-Methylfuran-2-yl)-5-(4-pyridyl)thiazol-2-yl]pyridine-4-carboxamide] gave a melting point of 254 to 257 °C. With `O=C(Nc1nc(-c2occc2-c2ccccc2)c(-c2ccncc2)s1)c1ccncc1` [Compound 603, N-[4-(3-Phenylfuran-2-yl)-5-(4-pyridyl)thiazol-2-yl]pyridine-4-carboxamide], the melting point lay within 190 to 192 °C. Take `O=C(Nc1nc(-c2ccoc2)c(-c2ccncc2)s1)c1ccncc1` [Compound 605, N-[4-(3-Furyl)-5-(4-pyridyl)thiazol-2-yl]pyridine-4-carboxamide]: the melting point fell in the range of 251 to 254 °C.

These data come from patent US7718808B2, “Thiazole derivatives” (Kyowa Hakko Kirin Co., Ltd., priority 2003, dated 2010).
